# Patent publication US11020422B2, “Cyclodextrin for the treatment of lysosomal storage diseases” (The United States of America, as represented by the …, priority 2012, dated 2021)
# Where two headings read alike, the source gives them in different places.
# Tests used:
# Wolman fibroblasts [1] = experiment: Amplex-Red cholesterol assay in Wolman fibroblasts; format: cell-based, human; details: for cholesterol accumulation: cyclodextrins alone, other lysosomal storage disorders (FIG. 1)
# Experimental: (§1) Amplex-Red Cholesterol Assay—Total cholesterol in patient cells was measured by the Amplex-Red Cholesterol Assay Kit (Invitrogen). The unesterified cholesterol was determined using the same kit without the enzyme […]. Esterified cholesterol was determined as the difference between the total and unesterified cholesterol values. The cells were seeded to black, tissue culture-treated 96-well, 384-well or 1536-well plates at 4000, 1000, 300 cells/well in 100, 20 or 5 μl medium by a Multidrop Combi dispenser (Thermo Scientific, Waltham, Mass.) and cultured for 24 hr. The assay plates were added with compound dilution in DMSO solution using a Pintool station (Klaypsys, San Diego, Calif.) and cultured for 3 days. The cells were washed twice manually for 96-well or 384-well plates or using a centrifugation method in which the inverted plates were placed on a stack of paper towel and centrifuged at 800 rpm for 1 min followed by addition of 7 μl/well PBS (added gently with a 45 degree angled liquid dispenser (Klaypsys). The cholesterol assay mixture from the kit was added at 100, 20 or 2.5 μl/well for 96-well, 384-well or 1536-well plates and incubated for 1 hr at 37° C. The resulted fluorescence intensity was measured with excitation of 560 (±10) and emission of 590 (±10) in a fluorescence plate reader (Tecan, Durham, N.C.).
# Wolman fibroblasts [2] = experiment: β-Hexosaminidase (HEXB) release, lysosomal exocytosis; format: cell-based, human; details: for lysosomal exocytosis as determined by HEXB secretion: Wolman fibroblasts, FIG. 3; for exocytosis: cyclodextrins, wild type and Wolman cells, assay not stated
# Experimental: Measurement of β-Hexosaminidase (HEXB) Release—Fibroblasts were cultured in 24-well plates at 30,000 cells/well in 0.4 ml medium for one day at 37° C. After being washed twice with the assay buffer (DMEM with 2 mM D-mannose 6-phosphate sodium salt), the cells with 0.4 ml/well the assay buffer were incubated at 37° with 0.2 ml/well compound in assay buffer. […] The rest of assay buffer in the 24-well plate was discarded followed by addition of 0.6 ml 1% Triton-X100 in dH2O to lyse the cells. After incubation at 37° C. for 30 min. 6 μl/well cell lysate were added to the 96-well plate with 24 μl assay buffer followed by 90 μl/well 2.25 mM HEXB substrate, 4-Methylumbelliferyl N-acetyl-β-D-glucosaminide (Sigma-Aldrich, #M2133), in a 25 mM citric acid buffer at pH 4.5. The 96-well plate was then measured in the Tecan fluorescence plate reader (Ex=365±20 nm and Em=460±20 nm) after 1 hr incubation at 37° C. and addition of 100 μl/well stop solution (1 M glycine and 1 M NaOH at pH 10.5).
# FIG. 3. […] We measured lysosomal exocytosis in delta-T-treated Wolman fibroblasts by determining the activity of beta-hexosaminidase (HEXB), a lysosomal enzyme, in the extracellular medium.
# In brief, the level of lysosomal exocytosis was determined by measuring the level of the lysosomal enzyme HEXB secreted into the culture medium following treatment with drug.
# [3] = tested on: fibroblasts derived from patients with lysosomal storage diseases; experiment: LysoTracker dye staining of enlarged lysosomes; format: cell-based, human; details: for concentration needed for significant effect on reduction of enlarged lysosome size: single compound use, skin fibroblasts of nine lysosomal storage diseases
# Experimental: (§2) On the experimental day, cells were live-stained with 100 μl/well 50 nM LysoTracker-Red DND-99 dye (Invitrogen, #L-7528) in medium at 37° C. for 1 hr followed by plate washing twice with PBS. The plate was then fixed in 100 μl/well 3.2% formaldehyde for 1 hr and washed for two times with PBS. […] After washing twice with PBS, the plates were stored at 4° C. until imaging analysis. DAPI filter set and TRITC filter set in the Incell2000 imaging plate reader were used to visualize Hoechst nuclear staining and LysoTracker staining, respectively.
# FIG. 5. […] To test this hypothesis we measured the ability of delta-T to decrease acidic/lysosomal compartment size as determined by LysoTracker staining in fibroblasts derived from patients with six other diseases. Lysosomal storage occurs in these fibroblasts consists of ceroid/lipofuscin in Batten (CLN2), globotriaosylceramide in Fabry, ceramide in Farber, sphingomyelin in NPA, partially degraded heparan sulfate in Sanfilippo type B, and GM2 ganglioside in Tay-Sachs (Table S1).
# The effect of various cyclodextrins, δ-tocopherol, and combinations of cyclodextrins and δ-tocopherol on lipid accumulation and lysosome size in wild-type and lysosomal storage disease fibroblasts (Wolman, Tay-Sach, Fabry, Farber, and MPSIIIB fibroblasts) was determined using Lysotracker assay. In brief, cells were treated with various combinations and concentrations of drugs followed by staining with the Lyso tracker dye which is a basophilic fluorescent probe that accumulates in acidic compartments, i.e. lysosomes, within the cell.
# NPC1 skin fibroblasts = experiment: Cholesterol accumulation (Amplex-red, filipin) and enlarged lysosomes (Lysotracker) in NPC1 skin fibroblasts; format: cell-based, human; details: for ranking order of cholesterol reduction effect / cholesterol accumulation: NPC cells
# Experimental: as §1
# NPC1-NSCs [4] = experiment: Amplex-red cholesterol assay in NPC1 neural stem cells; format: cell-based, human
# Experimental: as §1
# (§3) Induced pluripotent stem cells (IPSCs) from the NPC1 skin fibroblasts were generated and differentiated into neural stem cells (NPC1-NSCs).
# NPC1-NSCs [5] = experiment: Filipin and Lysotracker staining in NPC1 neural stem cells; format: cell-based, human; details: fluorescence microscopy, FIG. 12B
# Experimental: as §2, §3
# [6] = tested on: mouse model of Niemann Pick Type C (NPC) disease; details: cited from earlier work
# [7] = tested on: NPC1, Wolman and other lysosome storage disorder fibroblasts; experiment: Electron microscopy of lysosomal ultrastructure; details: Wolman fibroblasts; FIG. 6
# Experimental: Electron Microscopy—Fibroblast cells were seeded in 6-well plates at 150,000 cells/well in 5 ml medium and cultured for 1 day in the presence or absence of compounds. Cells were fixed in 2% glutaraldehyde, 0.1 M cacodylate buffer, pH 7.2 for 1 hr at room temperature and then stored at 4° C. until TEM analysis was performed. The cells were post fixed in 1% osmium tetroxide in the same buffer for 1 hour and en bloc stained with 0.5% uranyl acetate in 0.1 M acetate buffer, pH 4.2. The cells were then dehydrated in graded ethanol solutions (35%, 50%, 70%, 95% and 100%) and infiltrated overnight in epoxy resin (Poly/Bed 812, Polysciences). After adding fresh pure resin the cell plates were cured for 72 h in 55° C. After removing the polystyrene plates, suitable areas for thin sectioning were selected, cut out with a jewelry saw and glued onto empty resin stubs. About 70 nm thin sections were cut on an ultramicrotome (Leica EM UC6) and mounted on naked copper grids. The thin sections were double stained (uranyl acetate and lead citrate), examined in a Hitachi H-7650 transmission electron microscope, and images were taken using an AMT CCD camera.
# The effects of δ-tocopherol and methyl-β-cyclodextrin on the ultrastructural pathology of lysosomes in lysosome storage disorder cells were investigated by electron microscopy. In brief, following treatment of wild-type and lysosome storage disorder fibroblasts with δ-tocopherol, methyl-β-cyclodextrin, or δ-tocopherol and methyl-β-cyclodextrin, the fibroblasts were fixed and embedded. Thin sections of the embedded cells were then prepared and the ultrastructural pathology was examined by electron microscopy. […] The effects of δ-tocopherol and/or methyl-β-cyclodextrin on the ultrastructural pathology of other lysosome disorder fibroblasts-Farber (FIGS. 7,8 and 10); Tay-Sachs (FIG. 8); Fabry (FIG. 8); Wolman (FIG. 9); NPA (FIG. 9); Batten (FIG. 9); MSIIB (FIG. 9)—were analyzed by electron microscopy.
# Wolman fibroblasts [8] = experiment: Nile Red staining of neutral lipids in Wolman fibroblasts; details: cultured with compound for 3 days
# Experimental: Nile-red Staining—The cells were cultured and treated as described above in 96-well plates. On the experimental day, cells were washed two times with PBS and live-stained with 1 μM Nile-red dye solution (prepared in cell culture medium) at 100 μl/well followed by an incubation at 37° C. for 10 min. After washed twice with PBS, the cells were fixed in 3.2% paraformaldehyde in PBS at 100 μl/well 1 μg/ml Hoechst 33342 (Invitrogen) in PBS and incubation at RT for 30 min. The plate was washed twice with PBS and the images were measured in Incell2000 imaging plate reader with a FTTC filter set (Ex=480±20 nm and Ex=525±36 nm) for the neutral lipids (cholesteryl esters and triglycerides) and a DAPI filter set for Hoechst nuclear staining.
# (Nile Red) Cells were cultured in the presence of delta tocopherol, alpha tocopherol and MBCD plus in combination for 3 days and then stained for neutral lipid with Nile red.
# Wolman fibroblasts were treated with δ-tocopherol, α-tocopherol, methyl-β-cyclodextrin, or combinations of δ-tocopherol and methyl-β-cyclodextrin or α-tocopherol and methyl-β-cyclodextrin. […] To further characterize the effect of treatment on lipid accumulation, treated fibroblasts were evaluated using a Nile Red assay to measure neutral lipid accumulation. […] The Nile Red staining was visualized by fluorescent microscopy.
# primary NPC fibroblasts = primary NPC fibroblasts / LSD fibroblast; reported; cited from earlier work
# NPC cells = details: NPC / NPC1 cells; reported; cited from earlier work
# [9] = NPC1-NSCs, FIG. 12A, read-out: IC50, Amplex-red cholesterol assay
compound,measurement,setting,value
"COC[C@H]1O[C@@H]2O[C@H]3[C@H](O)[C@@H](OC)[C@@H](O[C@H]4[C@H](O)[C@@H](OC)[C@@H](O[C@H]5[C@H](O)[C@@H](OC)[C@@H](O[C@H]6[C@H](O)[C@@H](OC)[C@@H](O[C@H]7[C@H](O)[C@@H](OC)[C@@H](O[C@H]8[C@H](O)[C@@H](OC)[C@@H](O[C@H]1[C@H](O)[C@H]2OC)O[C@@H]8COC)O[C@@H]7COC)O[C@@H]6COC)O[C@@H]5COC)O[C@@H]4COC)O[C@@H]3COC [MBCD, Heptakis(2,6-di-o-methyl)-beta-cyclodextrin]",reduction in total cholesterol,"Wolman fibroblasts [1]; Wolman fibroblasts, FIGS. 1A-1C",significant reduction
same,reduction in free cholesterol,"Wolman fibroblasts [1]; Wolman fibroblasts, FIGS. 1D-1F",significant reduction
same,cholesterol accumulation,Wolman fibroblasts [1],most potent
same,lysosomal exocytosis as determined by HEXB secretion,Wolman fibroblasts [2],significant increases in lysosomal exocytosis
same,LysoTracker staining,"[3]; NPC1 and Wolman fibroblasts, 40 μM delta-T or 300 μM MBCD",significantly reduced LysoTracker staining
same,lipid accumulation and lysosome size (Lysotracker),"[3]; Wolman, Tay-Sach, Fabry, Farber, MPSIIIB fibroblasts, FIGS. 5A-5D",reduced lipid accumulation and lysosome size
same,concentration needed for significant effect on reduction of enlarged lysosome size,[3],300 µM
same,reduction of cholesterol accumulation and enlarged lysosomes,"NPC1 skin fibroblasts; NPC1 skin fibroblasts, 160 μM MBCD alone, 50 μM HBPCD or 20 μM MBCD with 10 μM delta-tocopherol, FIG. 11",almost completely reversed the phenotype
same,ranking order of cholesterol reduction effect,NPC1 skin fibroblasts,MBCD>alpha-CD>gamma-CD
same,potency of MBCD relative to HBPCD,NPC1 skin fibroblasts; reduction of cholesterol accumulation and enlarged lysosome size in NPC1 fibroblasts,over 30 fold
same,IC50,NPC1-NSCs [4]; [9],10 µM
same,reduction of cholesterol accumulation (filipin staining) and enlarged lysosomes (Lysotracker staining),NPC1-NSCs [5],better than those of delta-tocopherol
same,cholesterol accumulation and neuronal cell loss,[6],reduced cholesterol accumulation and neuronal cell loss
same,abnormal lysosomal structures (electron microscopy),[7],significantly reduced
same,neutral lipid accumulation (Nile red),Wolman fibroblasts [8]; FIG. 2,reduces accumulation of neutral lipids
same,neutral lipid accumulation (Nile red),"Wolman fibroblasts [8]; FIG. 2, listed as methyl-β-cyclodextrin",significantly reduced
"OC[C@H]1O[C@@H]2O[C@H]3[C@H](O)[C@@H](O)[C@@H](O[C@H]4[C@H](O)[C@@H](O)[C@@H](O[C@H]5[C@H](O)[C@@H](O)[C@@H](O[C@H]6[C@H](O)[C@@H](O)[C@@H](O[C@H]7[C@H](O)[C@@H](O)[C@@H](O[C@H]1[C@H](O)[C@H]2O)O[C@@H]7CO)O[C@@H]6CO)O[C@@H]5CO)O[C@@H]4CO)O[C@@H]3CO [alpha-CD, α-cyclodextrin]",cholesterol accumulation,Wolman fibroblasts [1],can reduce cholesterol accumulation
same,exocytosis,Wolman fibroblasts [2],enhance exocytosis
same,cholesterol accumulation,NPC1 skin fibroblasts,can reduce cholesterol accumulation
same,ranking order of cholesterol reduction effect,NPC1 skin fibroblasts,MBCD>alpha-CD>gamma-CD
"OC[C@H]1O[C@@H]2O[C@H]3[C@H](O)[C@@H](O)[C@@H](O[C@H]4[C@H](O)[C@@H](O)[C@@H](O[C@H]5[C@H](O)[C@@H](O)[C@@H](O[C@H]6[C@H](O)[C@@H](O)[C@@H](O[C@H]7[C@H](O)[C@@H](O)[C@@H](O[C@H]8[C@H](O)[C@@H](O)[C@@H](O[C@H]1[C@H](O)[C@H]2O)O[C@@H]8CO)O[C@@H]7CO)O[C@@H]6CO)O[C@@H]5CO)O[C@@H]4CO)O[C@@H]3CO [beta-CD, β-cyclodextrin]",cholesterol accumulation,Wolman fibroblasts [1],can reduce cholesterol accumulation
same,exocytosis,Wolman fibroblasts [2],enhance exocytosis
same,cholesterol accumulation,NPC1 skin fibroblasts,can reduce cholesterol accumulation
same,lysosomal exocytosis,primary NPC fibroblasts,increased exocytosis
COc1cc(/C=C/C(=O)CC(=O)/C=C/c2ccc(O)c(OC)c2)ccc1O [curcumin],"cholesterol efflux, accumulation or storage",NPC cells,reduce cholesterol storage
"OC[C@H]1O[C@@H]2O[C@H]3[C@H](O)[C@@H](O)[C@@H](O[C@H]4[C@H](O)[C@@H](O)[C@@H](O[C@H]5[C@H](O)[C@@H](O)[C@@H](O[C@H]6[C@H](O)[C@@H](O)[C@@H](O[C@H]7[C@H](O)[C@@H](O)[C@@H](O[C@H]8[C@H](O)[C@@H](O)[C@@H](O[C@H]9[C@H](O)[C@@H](O)[C@@H](O[C@H]1[C@H](O)[C@H]2O)O[C@@H]9CO)O[C@@H]8CO)O[C@@H]7CO)O[C@@H]6CO)O[C@@H]5CO)O[C@@H]4CO)O[C@@H]3CO [gamma-CD, γ-cyclodextrin]",cholesterol accumulation,Wolman fibroblasts [1],can reduce cholesterol accumulation
same,exocytosis,Wolman fibroblasts [2],enhance exocytosis
same,cholesterol accumulation,NPC1 skin fibroblasts,can reduce cholesterol accumulation
same,ranking order of cholesterol reduction effect,NPC1 skin fibroblasts,MBCD>alpha-CD>gamma-CD
Cc1c(C)c2c(c(C)c1O)CC[C@@](C)(CCC[C@H](C)CCC[C@H](C)CCCC(C)C)O2 [α-tocopherol],lysosomal exocytosis as determined by HEXB secretion,Wolman fibroblasts [2],significant increases in lysosomal exocytosis
same,neutral lipid accumulation (Nile red),Wolman fibroblasts [8]; FIG. 2,failed to show any effect
same,neutral lipid accumulation (Nile red),"Wolman fibroblasts [8]; FIG. 2, listed as Alpha Tocopherol",not as potent
(2-Hydroxypropyl)-beta-cyclodextrin [HBPCD],concentration needed for significant effect on reduction of enlarged lysosome size,[3],8000 µM
same,concentration needed for reduction of cholesterol accumulation and enlarged lysosomes,"NPC1 skin fibroblasts; NPC1 skin fibroblasts, single use, FIG. 11A",millimolars
same,potency in NPC1 neuronal cells compared to NPC1 skin fibroblasts,NPC1-NSCs [4],much more potent
same,"cholesterol accumulation, combination therapy experiment","NPC1-NSCs [4]; 50 μM HBPCD, 10 μM delta-tocopherol, alone or combined, compared with 5 mM HBPCD",did not show the significant cholesterol reduction effect
same,IC50,NPC1-NSCs [4]; [9],12 µM
same,ratio of IC50 HBPCD to IC50 delta-tocopherol,NPC1-NSCs [4]; human NPC1 neural stem cells,3.3 fold
same,IC50,"NPC1-NSCs [4]; human NPC1 neural stem cells, values given under dosage recommendations, read-out: IC50 on reduction of cholesterol accumulation, Amplex-red cholesterol assay",50 µM
same,reduction of cholesterol accumulation (filipin staining) and enlarged lysosomes (Lysotracker staining),NPC1-NSCs [5],better than those of delta-tocopherol
same,cholesterol accumulation and neuronal cell loss,[6],reduced cholesterol accumulation and neuronal cell loss
same,lysosomal exocytosis,primary NPC fibroblasts,promote a calcium-dependent lysosomal exocytosis
